Experimental data from article PMC6199744, “Development of Chemical Proteomics for the Folateome and Analysis of the Kinetoplastid Folateome” (ACS Infectious Diseases, 2018).
Like-named read-outs stand apart in the source and are kept apart here.

Legend:
[1] = target: DHFR-TS (Trypanosoma brucei brucei, UniProt Q27783); experiment: Individual bead pull down with competing free ligand; details: competing free ligand 100 μM; bead = immobilized compound of the row; T. brucei lysate; read-out: % Inhibition of protein binding to bead, DHFR-TS, T. brucei
Chain of DHFR-TS (Trypanosoma brucei brucei, UniProt Q27783) (Q27783 whole entry): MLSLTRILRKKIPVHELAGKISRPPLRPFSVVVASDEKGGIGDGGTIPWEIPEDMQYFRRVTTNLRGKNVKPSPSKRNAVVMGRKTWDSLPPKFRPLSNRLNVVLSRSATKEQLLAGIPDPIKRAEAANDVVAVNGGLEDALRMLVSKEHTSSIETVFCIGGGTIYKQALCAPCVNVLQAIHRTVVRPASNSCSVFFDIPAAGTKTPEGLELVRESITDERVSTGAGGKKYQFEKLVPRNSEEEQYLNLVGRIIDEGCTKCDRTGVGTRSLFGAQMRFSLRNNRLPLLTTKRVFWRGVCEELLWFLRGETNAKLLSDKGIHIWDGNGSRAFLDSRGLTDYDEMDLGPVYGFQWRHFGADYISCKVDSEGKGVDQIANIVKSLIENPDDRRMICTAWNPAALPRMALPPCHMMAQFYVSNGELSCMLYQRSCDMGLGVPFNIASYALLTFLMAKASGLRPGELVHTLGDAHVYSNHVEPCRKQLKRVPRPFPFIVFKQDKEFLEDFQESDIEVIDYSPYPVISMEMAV
Text: (§1) Antifolate compounds were immobilized onto NHS-activated sepharose beads/reverse sepharose beads through amide coupling via either an amino or carboxyl group (see Figure 3). The reaction was monitored by observing the disappearance of test compound by LCMS, after which the unreacted coupling sites were capped with NHS-acetate or aminoethanol.
(§2) Folate metabolizing enzymes are not highly abundant proteins,[19],[20] potentially making their identification by MS difficult. Beads will not only pull down the low abundant high affinity binders but also attract highly abundant, low affinity binders or so-called nonspecific binders. Sometimes, the nonspecific high abundant proteins can mask true binders. The target identification approach used in this study overcomes this issue by performing competition studies. Various concentrations of the free unmodified inhibitor (test compound) were preincubated with the lysate, prior to addition of the beads derivatized with immobilized compounds. Following washing of the bound proteins from the beads and tryptic digest, the peptides were labeled using the TMTs and then pooled. Differences in peptide abundance were analyzed by fragmentation of the isotope-coded isobaric tags in the MS/MS spectra (Figure 5).[9],[11],[12],[21] While the competition experiments with test compound confirm specific binding, it is also possible that some proteins will have a stronger binding interaction with the derivatized beads than the competing test compound, due to subtle differences in the interactions between the immobilized compound and the test compound with the target protein.

[2] = target: PTR-1 (Trypanosoma brucei brucei, UniProt O76290); experiment: as above; details: competing free ligand 100 μM; bead = immobilized compound of the row; T. brucei lysate; read-out: % Inhibition of protein binding to bead, PTR-1, T. brucei
Chain of PTR-1 (O76290 entry or part of it): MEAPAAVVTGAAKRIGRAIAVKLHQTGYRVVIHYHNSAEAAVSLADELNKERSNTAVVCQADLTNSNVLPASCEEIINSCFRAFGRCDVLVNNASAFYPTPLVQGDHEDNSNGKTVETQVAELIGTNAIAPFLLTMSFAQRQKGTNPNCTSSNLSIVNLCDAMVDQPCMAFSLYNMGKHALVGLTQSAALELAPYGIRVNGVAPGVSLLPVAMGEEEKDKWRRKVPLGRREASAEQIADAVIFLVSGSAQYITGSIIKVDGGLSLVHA
Text: as §1, §2

[3] = target: DHFR-TS (Leishmania major, UniProt P07382); experiment: biochemical; details: competing free ligand 100 μM; bead = immobilized compound of the row; L. major lysate; read-out: % Inhibition of protein binding to bead, DHFR-TS, L. major
Chain of DHFR-TS (Leishmania major, UniProt P07382) (P07382 whole entry): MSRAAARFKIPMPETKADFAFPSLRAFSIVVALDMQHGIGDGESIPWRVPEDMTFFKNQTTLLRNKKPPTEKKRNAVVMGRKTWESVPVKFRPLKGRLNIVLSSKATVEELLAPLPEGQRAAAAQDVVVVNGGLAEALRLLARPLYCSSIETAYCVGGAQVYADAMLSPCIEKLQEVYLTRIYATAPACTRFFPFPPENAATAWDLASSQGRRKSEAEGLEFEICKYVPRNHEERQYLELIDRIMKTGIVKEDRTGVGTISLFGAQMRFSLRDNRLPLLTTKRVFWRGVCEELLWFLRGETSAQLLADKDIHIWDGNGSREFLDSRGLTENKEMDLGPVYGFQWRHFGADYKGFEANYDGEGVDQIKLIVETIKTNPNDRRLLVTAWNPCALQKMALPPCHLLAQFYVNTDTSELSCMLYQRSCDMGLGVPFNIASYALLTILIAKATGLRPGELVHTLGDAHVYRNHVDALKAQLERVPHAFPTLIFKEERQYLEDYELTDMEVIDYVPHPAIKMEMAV

[4] = target: T1, PTR1 (Leishmania major, UniProt Q01782); experiment: biochemical; details: competing free ligand 100 μM; bead = immobilized compound of the row; L. major lysate; read-out: % Inhibition of protein binding to bead, PTR-1, L. major
T1 sequence (Q01782 1-288): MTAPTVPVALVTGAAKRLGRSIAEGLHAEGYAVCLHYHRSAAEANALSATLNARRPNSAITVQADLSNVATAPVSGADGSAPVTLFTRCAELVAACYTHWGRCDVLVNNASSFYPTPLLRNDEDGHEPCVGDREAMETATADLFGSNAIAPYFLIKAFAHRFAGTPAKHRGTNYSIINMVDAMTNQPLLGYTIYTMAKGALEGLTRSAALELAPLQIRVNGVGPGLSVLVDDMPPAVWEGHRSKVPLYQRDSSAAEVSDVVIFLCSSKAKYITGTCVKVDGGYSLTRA

[5] = target: PTERIDINE REDUCTASE (TB927.8.2210) (Trypanosoma brucei brucei, UniProt O76290); experiment: Multitargeted bead mixture competition; assay type: binding, T. brucei; details: multitargeted bead mixture; free ligand 100 μM; T. brucei lysate; TB927.8.2210 PTERIDINE REDUCTASE
Chain of PTERIDINE REDUCTASE (TB927.8.2210) (O76290 entry or part of it): as the sequence (O76290 entry or part of it) above

[6] = target: DIHYDROFOLATE REDUCTASE-T[…] (TB427.07.5480) (Trypanosoma brucei brucei, UniProt Q27783); experiment: Multitargeted bead mixture competition; assay type: binding; details: multitargeted bead mixture; free ligand 100 μM; T. brucei lysate; TB427.07.5480 DHFR-TS
Chain of UniProt Q27783 (Q27783 whole entry): as the sequence (Q27783 whole entry) above

[7] = system: HYPOTHETICAL PROTEIN, CONSERVED (TB427.05.3680); experiment: Multitargeted bead mixture competition; assay type: binding; details: free ligand 100 μM, T. brucei lysate
[8] = system: TB427.04.1870; experiment: Multitargeted bead mixture competition; assay type: binding; details: free ligand 100 μM, T. brucei lysate
[9] = system: CHOLINE KINASE (TB427TMP.18.0017); experiment: Multitargeted bead mixture competition; assay type: binding, T. brucei; details: multitargeted bead mixture; free ligand 100 μM; T. brucei lysate; TB427TMP.18.0017 CHOLINE KINASE
[10] = system: TB11.03.0290; experiment: Multitargeted bead mixture competition; assay type: binding, T. brucei; details: multitargeted bead mixture; free ligand 100 μM; T. brucei lysate; TB11.03.0290
[11] = target: GLYCERALDEHYDE 3-PHOSPHATE DEHYDROGENASE, GLYCOSOM (TB427.06.4300) (Trypanosoma brucei brucei, UniProt P22512); experiment: Multitargeted bead mixture competition; assay type: binding, T. brucei; details: multitargeted bead mixture; free ligand 100 μM; T. brucei lysate; TB427.06.4300 GAPDH
Chain of UniProt P22512 (P22512 whole entry): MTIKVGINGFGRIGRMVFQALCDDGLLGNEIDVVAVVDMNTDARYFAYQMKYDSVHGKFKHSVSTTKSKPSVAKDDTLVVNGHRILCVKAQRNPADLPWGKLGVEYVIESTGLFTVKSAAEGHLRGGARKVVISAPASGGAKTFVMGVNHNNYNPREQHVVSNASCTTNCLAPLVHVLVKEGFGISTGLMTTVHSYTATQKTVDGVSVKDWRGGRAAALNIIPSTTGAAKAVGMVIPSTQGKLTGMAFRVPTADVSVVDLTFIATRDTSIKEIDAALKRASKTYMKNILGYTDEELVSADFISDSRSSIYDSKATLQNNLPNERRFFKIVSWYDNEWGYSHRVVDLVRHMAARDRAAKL

[12] = system: PHOSPHATIDYLINOSITOL-4-PHOSPHATE 5-KINASE, PUTATIV (TB427.10.3890); experiment: Multitargeted bead mixture competition; assay type: binding; details: free ligand 100 μM, T. brucei lysate
[13] = system: TB927.8.6460; experiment: Multitargeted bead mixture competition; assay type: binding, T. brucei; details: multitargeted bead mixture; free ligand 100 μM; T. brucei lysate; TB927.8.6460
[14] = system: TB09.211.1690; experiment: Multitargeted bead mixture competition; assay type: binding; details: free ligand 100 μM, T. brucei lysate
[15] = system: TB927.7.1340; experiment: Multitargeted bead mixture competition; assay type: binding; details: free ligand 100 μM, T. brucei lysate
[16] = system: TB927.8.6760; experiment: Multitargeted bead mixture competition; assay type: binding; details: free ligand 100 μM, T. brucei lysate
[17] = system: HYPOTHETICAL PROTEIN, CONSERVED (TB427.03.2670); experiment: Multitargeted bead mixture competition; assay type: binding; details: free ligand 100 μM, T. brucei lysate
[18] = system: PEPTIDYL-PROLYL CIS-TRANS ISOMERASE (CYCLOPHILIN- (TB427TMP.211.1350)); experiment: Multitargeted bead mixture competition; assay type: binding; details: free ligand 100 μM, T. brucei lysate
[19] = system: BRANCHED-CHAIN AMINO ACID AMINOTRANSFERASE, PUTATI (TB427.02.4590); experiment: Multitargeted bead mixture competition; assay type: binding; details: free ligand 100 μM, T. brucei lysate
[20] = system: NGG1 INTERACTING FACTOR 3-LIKE (Tb427tmp.02.5000); assay type: binding; details: multitargeted bead mixture; free ligand 100 μM; T. brucei lysate; Tb427tmp.02.5000
[21] = system: ACETYLTRANSFERASE, PUTATIVE (Tb427.08.3310); experiment: Multitargeted bead mixture competition; assay type: binding; details: free ligand 100 μM, T. brucei lysate
[22] = system: HYPOTHETICAL PROTEIN, CONSERVED (Tb427.10.6100); experiment: Multitargeted bead mixture competition; assay type: binding; details: free ligand 100 μM, T. brucei lysate
[23] = system: SUCCINYL-COA SYNTHETASE ALPHA SUBUNIT, PUTATIVE (Tb427.03.2230); experiment: Multitargeted bead mixture competition; assay type: binding; details: free ligand 100 μM, T. brucei lysate
[24] = system: IRON/ASCORBATE OXIDOREDUCTASE FAMILY PROTEIN, PUTA (Tb427.02.6180); experiment: Multitargeted bead mixture competition; assay type: binding, T. brucei; details: multitargeted bead mixture; free ligand 100 μM; T. brucei lysate; Tb427.02.6180
[25] = system: PROTEIN KINASE, PUTATIVE (Tb427.03.1570); experiment: Multitargeted bead mixture competition; assay type: binding; details: free ligand 100 μM, T. brucei lysate
[26] = target: T2, MTHFS, the 5-formyl-THF-cyclo-ligase (Homo sapiens, UniProt P49914); experiment: Multitargeted bead mixture competition, HeLa cell extract; assay type: binding; details: bead mixture; HeLa cell extract
T2 sequence (P49914 1-203): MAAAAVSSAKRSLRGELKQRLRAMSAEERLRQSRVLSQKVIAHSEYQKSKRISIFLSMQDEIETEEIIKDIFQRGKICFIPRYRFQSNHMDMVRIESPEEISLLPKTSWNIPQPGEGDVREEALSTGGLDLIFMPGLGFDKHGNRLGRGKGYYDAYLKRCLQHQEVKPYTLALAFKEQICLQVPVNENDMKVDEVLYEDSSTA

[27] = target: TbTS; details: recombinant protein assay; ref 6 (SI); read-out: Ki, recombinant TbTS; cited from earlier work
[28] = target: human enzyme (DHCH); design: method as in ref 8 (SI); details: ref 8 (SI); cited from earlier work
[29] = target: leishmania DHCH enzyme; design: method as in ref 10 (SI); details: ref 10 (SI); cited from earlier work
[30] = system: T. brucei lysate proteins; assay type: binding, Trypanosoma brucei; details: X016405, bead mixture, free compound 100.0uM, Trypanosoma brucei

## NCCCCCOc1ccc(Cc2cnc(N)nc2N)cc1 [compound 10]
[1]
  inhibition at 100 µM: 84%
[2]
  inhibition at 100 µM: 77%

## Cc1ccc2nc(N)[nH]c(=O)c2c1Sc1ccncc1 [NTX, nolatrexed]
[3]
  inhibition at 100 µM: < 50%
[4]
  inhibition at 100 µM: < 50%
[5]
  percentage of competition from bead binding: 16%
[6]
  percentage of competition from bead binding: -5%
[7]
  percentage of competition from bead binding: 38%
[8]
  percentage of competition from bead binding: 52%
[9]
  percentage of competition from bead binding: 34%
[10]
  percentage of competition from bead binding: 77%
[11]
  percentage of competition from bead binding: 18%
[12]
  percentage of competition from bead binding: 16%
[13]
  percentage of competition from bead binding: 68%
[14]
  percentage of competition from bead binding: -7%
[15]
  percentage of competition from bead binding: 11%
[16]
  percentage of competition from bead binding: 8%
[17]
  percentage of competition from bead binding: 11%
[18]
  percentage of competition from bead binding: 1%
[19]
  percentage of competition from bead binding: 9%
[20]
  percentage of competition from bead binding: 87%
[21]
  percentage of competition from bead binding: 29%
[22]
  percentage of competition from bead binding: 33%
[23]
  percentage of competition from bead binding: 27%
[24]
  percentage of competition from bead binding: 52%
[25]
  percentage of competition from bead binding: 11%
[26]
  binding to MTHFS: bound MTHFS
[27]
  Ki: 39.4 nM

## NCCOCCOc1cccc(Cc2cnc(N)nc2N)c1 [compound 12]
[1]
  inhibition at 100 µM: 79%
[2]
  inhibition at 100 µM: 51%

## Nc1nc2c(c(=O)[nH]1)N1C(=O)N(c3ccc(C(=O)NC(CCC(=O)O)C(=O)O)cc3)CC1CN2 (stereo not drawn) [compound 4]
[28]
  Ki: 18 ± 5 nM
[29]
  Ki: 105 ± 2 nM

## NCCOCCOc1ccc(Cc2cnc(N)nc2N)cc1 [compound 13]
[1]
  inhibition at 100 µM: 75%
[2]
  inhibition at 100 µM: 51%

## Nc1nc(=O)c2nc(CNc3ccc(C(=O)N[C@@H](CCC(=O)O)C(=O)O)cc3)cnc2[nH]1 [Folic acid]
[1]
  inhibition at 100 µM: 77%
[2]
  inhibition at 100 µM: 92%
[3]
  inhibition at 100 µM: 85%

## NCCCCCOc1cccc(Cc2cnc(N)nc2N)c1 [compound 11]
[1]
  inhibition at 100 µM: 87%
[2]
  inhibition at 100 µM: 56%

## Nc1nc(O)c2c(CCc3ccccc3)c[nH]c2n1 [compound 5]
[5]
  percentage of competition from bead binding: 93%
[6]
  percentage of competition from bead binding: 5%
[7]
  percentage of competition from bead binding: 70%
[8]
  percentage of competition from bead binding: 50%
[9]
  percentage of competition from bead binding: 49%
[10]
  percentage of competition from bead binding: 61%
[11]
  percentage of competition from bead binding: 15%
[12]
  percentage of competition from bead binding: 49%
[13]
  percentage of competition from bead binding: 65%
[14]
  percentage of competition from bead binding: -34%
[15]
  percentage of competition from bead binding: -41%
[16]
  percentage of competition from bead binding: -71%
[17]
  percentage of competition from bead binding: 54%
[18]
  percentage of competition from bead binding: -24%
[19]
  percentage of competition from bead binding: -22%
[20]
  percentage of competition from bead binding: 6%
[21]
  percentage of competition from bead binding: 61%
[22]
  percentage of competition from bead binding: 77%
[23]
  percentage of competition from bead binding: 51%
[24]
  percentage of competition from bead binding: 80%
[25]
  percentage of competition from bead binding: 60%
[30]; protein TB427.02.1850
  abundance relative to vehicle: 0.89
[30]; protein TB427.06.4760
  abundance relative to vehicle: 1.04
[30]; protein TB427.07.3620
  abundance relative to vehicle: 1.03
[30]; protein TB427.08.1880
  abundance relative to vehicle: 0.84
